Data: publication PMC4410974 (Clinical cancer research : an official journal of the …, 2012)

Test: Adverse events
Assay type: in vivo, human

## CO[C@H]1C[C@@H]2CC[C@@H](C)[C@@](O)(O2)C(=O)C(=O)N2CCCC[C@H]2C(=O)O[C@H]([C@H](C)C[C@@H]2CC[C@@H](O)[C@H](OC)C2)CC(=O)[C@H](C)/C=C(\C)[C@@H](O)[C@@H](OC)C(=O)[C@H](C)C[C@H](C)/C=C/C=C/C=C/1C [Sirolimus]
Sirolimus Alone 10mg
  Altered taste (adverse event): 1
  Anemia (adverse event): 3
  Anorexia (adverse event): 1
  Diarrhea (adverse event): 1
  Elevated Transaminases (adverse event): 1
  Fatigue (adverse event): 2
  Hyperlipidemia (adverse event): 2
  Infection (adverse event): 1
  Lymphopenia (adverse event): 3
  Lymphopenia, grade 3 or 4: 2
  Mucocutaneous dryness (adverse event): 1
  Mucositis (adverse event): 2
  Nausea (adverse event): 3
  Paresthesia (adverse event): 1
  Rash (adverse event): 1
  Vomiting (adverse event): 2
Sirolimus Alone 20mg
  Altered taste (adverse event): 1
  Anemia (adverse event): 5
  Anorexia (adverse event): 1
  Decreased platelets (adverse event): 1
  Diarrhea (adverse event): 5
  Dyspnea (adverse event): 1
  Elevated Transaminases (adverse event): 4
  Fatigue (adverse event): 4
  Hyperglycemia (adverse event): 6
  Hyperlipidemia (adverse event): 4
  Hypoxia (adverse event): 2
  Infection (adverse event): 1(1)
  Infection, grade 3 or 4: 1(1)
  Lymphopenia (adverse event): 4
  Lymphopenia, grade 3 or 4: 1
  Mucositis (adverse event): 1
  Nausea (adverse event): 2
  Pneumonia (adverse event): 2(2)
  Pneumonia, grade 3 or 4: 2(2)
Sirolimus Alone 30mg
  Anemia (adverse event): 3
  Anorexia (adverse event): 1(1)
  Anorexia, grade 3 or 4: 1(1)
  Decreased platelets (adverse event): 1
  Diarrhea (adverse event): 2
  Elevated Transaminases (adverse event): 2
  Fatigue (adverse event): 1
  Fever (adverse event): 2
  Hyperglycemia (adverse event): 6
  Hyperlipidemia (adverse event): 3
  Hyperlipidemia, grade 3 or 4: 1
  Hypertension (adverse event): 1
  Infection (adverse event): 1(1)
  Infection, grade 3 or 4: 1(1)
  Lymphopenia (adverse event): 3
  Lymphopenia, grade 3 or 4: 1
  Mucocutaneous dryness (adverse event): 1
  Nausea (adverse event): 4
  Nausea, grade 3 or 4: 1
  Pneumonia (adverse event): 1
  Rash (adverse event): 1
  Vomiting (adverse event): 2
Sirolimus Alone 30mg (4h)
  Decreased platelets (adverse event): 1
  Diarrhea (adverse event): 4
  Elevated Transaminases (adverse event): 1
  Fatigue (adverse event): 1
  Hyperglycemia (adverse event): 1
  Leukopenia (adverse event): 2
  Nausea (adverse event): 2
  Vomiting (adverse event): 2
Sirolimus Alone 30mg (24h)
  Diarrhea (adverse event): 2
  Infection (adverse event): 1(1)
  Infection, grade 3 or 4: 1(1)
  Mucositis (adverse event): 1
  Nausea (adverse event): 1
  Rash (adverse event): 1
Sirolimus Alone 45mg (24h)
  Anorexia (adverse event): 1
  Diarrhea (adverse event): 3
  Diarrhea, grade 3 or 4: 1
  Hyperglycemia (adverse event): 1
  Mood Alteration (adverse event): 1
  Nausea (adverse event): 2
  Vomiting (adverse event): 4
Sirolimus Alone 60mg
  Anorexia (adverse event): 3
